We go through 15 molecules from article PMC5983277 (Marine Drugs, 2018).

In data set [1] the test system is human epidermoid carcinoma cells (KB). In words: cells. The note with it: Homo sapiens, KB, 72 h, read-out: percentage of inhibition of cellular proliferation of KB cells. The protocol: (§1) The human cell line KB originated from the National Cancer Institute (NCI) and was grown in Dulbecco’s Modified Eagle Medium (D-MEM) medium supplemented with 10% foetal calf serum, in the presence of penicillin, streptomycin, and fungizone in a 75 mL flask under 5% CO2. A total of 600 cells were plated in 96-well tissue culture plates in 200 µL of medium and treated 24 h later with 2 μL of stock solution of compounds dissolved in DMSO using a Biomek 3000 (Beckman-Coulter, Brea, CA, USA). Controls received the same volume of DMSO (1% final volume). After 72 h exposure, cell titer 96 Aqueous One solution (Promega, Madison, WI, USA) was added and incubated for 3 h at 37 °C: the absorbance was monitored at 490 nm, and results were expressed as the inhibition of cell proliferation calculated as the ratio [(1 − (OD490 treated/OD490 control)) × 100] in triplicate experiments.

A further data set deals with Insect recombinant AChE. The arrangement: method as in Sepcic et al. 2001 [33]; key to mode of AChE inhibition: NCI: non competitive inhibition; CI: competitive inhibition; ND: non described. The note with it: ref Sepcic et al. 2001 [33], cited from earlier work.
The target of the next data set is Eel AChE. The arrangement: key to mode of AChE inhibition: NCI: non competitive inhibition; CI: competitive inhibition; ND: non described. The note with it: cited from earlier work; for IC50: read-out: AChE inhibition IC50.
In another data set the test system is Human recombinant AchE. Details: method as in Sirimangkalakitti et al. 2015 [32]; key to mode of AChE inhibition: NCI: non competitive inhibition; CI: competitive inhibition; ND: non described. The note with it: ref Sirimangkalakitti et al. 2015 [32], cited from earlier work; for IC50: read-out: AChE inhibition IC50.
A further data set relates to AChE. The data set can be described thus: AChE activity in brain and gill extracts of exposed guppies. The class given is in vivo. The note with it: guppies after 1 h exposure to 100 µg/mL, N = 5, p < 0.05.
Data set [2] deals with Acanthurus triostegus (reef fish). In words: Reef fish feeding behavior experiment (bites on coral rubble). The format is in vivo. The note with it: for number of bites on coral pieces per recruit and per hour (in words): A. triostegus recruits (larvae undergoing metamorphosis), 1 μg/mL in tank, 72 h, p < 0.01. How it is done:
Manini (Acanthurus triostegus) were caught during new moon nights on the foreshore puddles at Tema’e public beach. Recruits (fish larvae undergoing metamorphosis) and juveniles (larvae after the recruits stage) were collected and immediately used for the experiments. Natural lagoon sea-water was used and UV-sterilized prior use. Three conditions were tested on three groups: control, solvent, 1 μg/mL sponge extract treatment, with 4 or 5 fishes in each 3 L tank. The fishes were exposed under semi-static system for 72 h, the experimental solutions were renewed every 24 h to maintain clean experimental conditions. The experiments were performed with fish recruits and juveniles. Rubbles were disposed in each aquarium 1 h/day during 3 days. Feeding behavior experiment consists in counting the overall number of bites on those rubbles in each aquarium. Six videos sequences (N = 6) of 5 or 10 min per aquarium and per day were analyzed. Results are expressed in number of bites per fish and per hour.
All the values of AChE activity are represented in a boxplot distribution, because of non-normality of variable distribution (N = 4 or 5). The significant differences between controls and treatments (p-value p < 0.05) were analyzed with non-parametric test of Wilcoxon Mann Whitney. In feeding deterrent assay, pairs significant differences between different conditions (p < 0.05) were tested with non-parametric Kruskal Wallis test. All statistical assays were executed using R software (R-3.2.0, The R Foundation for Statistical Computing, Vienna, Austria).

In data set [3] the target is T1, acetylcholinesterase (AChE) (Homo sapiens, UniProt P22303).
T1 construct: purchased Sigma-Aldrich
The data set can be described thus: Acetylcholinesterase inhibition assay (Ellman's colorimetric method) and kinetic study. The class given is biochemical. How it is done:
The crude extract of the sponge and the purified psammaplysene D (1) were dissolved in DMSO at 10 mg/mL, stored at −20 °C and diluted subsequently 100 times in H2O prior testing. Determination of AChE-inhibitory activity was measured according the Ellman’s colorimetric method, in 96-well tissue culture plates. All reagents, buffers and salts were purchased from Sigma-Aldrich (Saint-Louis, MO, USA). Galantamine was used as a positive control for each analysis. Solvent controls received the same volume of water. After a 30 min incubation at 25 °C in the dark, absorbance was monitored at λ = 405 nm. Results were expressed as the percentage of enzyme inhibition calculated as the ratio: 100 × (ODcontrol − ODtreated)/(ODcontrol − ODblank), where the blanks are the wells without AChE. Serial dilutions of the compound or extract were prepared (100, 50, 25, 12.5, 6.25, 3.12, 1.56, and 0.78 μg/mL) and tested according to the same procedure using 10 μL of each solution. IC50 values were graphically determined by plotting the percentage of inhibition against the compound concentrations. Each assay was performed in triplicate and results are expressed as mean values ± S.D.
The inhibition mode of psammaplysene D on AChE was determined while measuring the enzyme activity in presence of an increasing concentration of ATCI (0.024, 0.049, 0.098, 0.19, 0.39, 0.78, 1.57, and 3.15 μM), in absence or presence of 2 μg/mL final concentration of purified psammaplysene D. The inhibition mode, Vmax, and KM values were determined by double-reciprocal Lineweaver and Burk plot analysis (1934) of the data obtained.
For orientation: Ellman's reagent forms a yellow product with free thiols.

In data set [4] the test system is Poecilia reticulata (guppy). The data set can be described thus: Guppy acute toxicity bioassay (bathing, 1 h). The note with it: guppies. The format is in vivo. How it is done: (§2) The screening of our French Polynesian sponges extract library was performed on acetylcholinesterase inhibitor (AChE) in the aim to investigate a possible chemical defense of sessile organisms on the reef against fishes, their main predators. […] In order to try to evaluate the effect of psammaplysene D in the environment, it was further tested on fresh water fish (guppy, Poecilia reticulata) and reef fish (Acanthurus triostegus) feeding experiment using bathing with or without the bioactive compound. Guppies are fed with commercial flakes, but the wild reef fish feed on natural coral heads, and their appetite evaluated by counting the bites on the corals. Two experiments were run on guppies using Suberea ianthelliformis crude extract and purified psammaplysene D (1): an acute toxicity bioassay (100 μg/mL of crude extract or purified psammaplysene D (1), 1 h) and a chronic toxicity (5 μg/mL of crude extract or 1 μg/mL of purified psammalysene D (1), 72 h).
5 to 8 cm long guppies (Poecilia reticulata) were collected at night in a private fresh water pool at Papara (Tahiti, French Polynesia) and immediately acclimated at the laboratory temperature (25 °C). After acclimatization, fishes were parted in two 2 L tanks: one for the control group treated with solvent (N = 5). Another experiment was performed using a 1 h treatment with 100 μg/mL of crude extract of the sponge or purified psammaplysene D (1) to check their acute toxicity.

A short description of the next data set: in vitro. The note with it: human. How it is done:
as §1

Data set [5] relates to Poecilia reticulata (guppy). The data set can be described thus: Guppy chronic (sub-lethal) exposure, feeding on flakes. The format is in vivo. The note with it: guppies, sub-lethal dose 1 μg/mL purified compound, 24 h exposure (72 h experiment). The protocol: as §2
5 to 8 cm long guppies (Poecilia reticulata) were collected at night in a private fresh water pool at Papara (Tahiti, French Polynesia) and immediately acclimated at the laboratory temperature (25 °C). After acclimatization, fishes were parted in two 2 L tanks: one for the control group treated with solvent (N = 5). […]

Read-outs that look alike come from different tables or passages of the source.

T1 sequence (P22303 32-614, species assumed): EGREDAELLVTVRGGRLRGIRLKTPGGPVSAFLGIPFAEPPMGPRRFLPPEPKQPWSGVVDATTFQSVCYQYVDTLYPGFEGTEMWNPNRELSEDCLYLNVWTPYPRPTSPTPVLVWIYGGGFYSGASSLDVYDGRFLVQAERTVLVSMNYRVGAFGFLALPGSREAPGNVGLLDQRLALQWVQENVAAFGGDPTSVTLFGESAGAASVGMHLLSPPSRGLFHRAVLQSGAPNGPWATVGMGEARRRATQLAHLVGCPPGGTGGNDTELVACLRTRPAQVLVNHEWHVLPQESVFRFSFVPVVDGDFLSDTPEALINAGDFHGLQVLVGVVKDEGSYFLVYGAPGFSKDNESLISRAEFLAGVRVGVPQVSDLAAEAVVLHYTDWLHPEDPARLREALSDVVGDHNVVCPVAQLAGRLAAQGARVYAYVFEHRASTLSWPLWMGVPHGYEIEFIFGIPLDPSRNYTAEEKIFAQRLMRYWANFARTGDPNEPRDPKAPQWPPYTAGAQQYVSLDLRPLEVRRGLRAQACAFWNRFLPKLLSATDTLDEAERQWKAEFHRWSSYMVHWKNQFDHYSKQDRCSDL

For the molecule `O=C(O)c1cc(O)c2c(O)ccc(O)c2n1` [5-hydroxy xanthenuric acid (11), 4,5,8-trihydroxyquinoline-2-carboxilic acid], in data set [1], the inhibition at 1 µM came to 6 ± 0.5% and the inhibition at 10 µM amounted to 25 ± 1%.
On to `CN(C)CCc1cc(Br)c(OCCCN(C)C(=O)C(Cc2cc(Br)c(O)c(Br)c2)N(C)C)c(Br)c1` (centres unmarked) [Anomoian C (6), O-demethyl anomoian B], for which, in data set [1], the inhibition at 1 µM amounted to 15 ± 3% and the inhibition at 10 µM was 28 ± 5%.
With `CNC(Cc1cc(Br)c(O)c(Br)c1)C(=O)N(C)CCCOc1c(Br)cc(CCN(C)C)cc1Br` (centres unmarked) [Anomoian D (7), O-demethyl anomoian A], in [1], the inhibition at 1 µM came out at 17 ± 2% and the inhibition at 10 µM is 29 ± 2%.
For `CNC(Cc1cc(Br)c(OCCCN(C)C)c(Br)c1)C(=O)N(C)CCCOc1c(Br)cc(CCN(C)C)cc1Br` (centres unmarked) [Anomoian E (8), anomoian E], in data set [1], the inhibition at 1 µM amounted to 6 ± 2% and the inhibition at 10 µM is 82 ± 1%.
Take `CN(C)CCCOc1c(Br)cc(CC(C(=O)N(C)CCCOc2c(Br)cc(CCN(C)C)cc2Br)N(C)C)cc1Br` (centres unmarked) [Anomoian F (9), anomoian F]: in data set [1], the inhibition at 1 µM turned out to be 20 ± 0.6% and the inhibition at 10 µM was found to be 100 ± 0.5%.
Turning to `Br.COc1c(Br)cc(C/C(=N\O)C(=O)NCCc2cc(Br)c(OCCCN)c(Br)c2)cc1Br` [Aplysamine-4], the Ki (in general, the dissociation constant of the complex between target and ligand, obtained from inhibition or displacement) at Insect recombinant AChE (read-out: AChE inhibition KI) is 2 µM; on Eel AChE (ref Sepcic et al. 2001 [33], read-out: AChE inhibition KI), 16 µM. Further, the “mode of AChE inhibition” value with Insect recombinant AChE and in the data set on Eel AChE (ref Sepcic et al. 2001 [33]) was “NCI” throughout.
Consider `COC1=C(Br)C(O)C2(C=C1Br)CC(C(=O)NCC(O)COc1c(Br)cc(C3CNC(=O)O3)cc1Br)=NO2` (centres unmarked) [Fistularin 1], for which the IC50 (commonly the concentration that inhibits the measured activity by half) with Human recombinant AchE is 47.5 µM.
As for `COC1=C(Br)[C@H](O)[C@@]2(C=C1Br)CC(C(=O)NCCCCCNC(=O)C1=NO[C@]3(C=C(Br)C(OC)=C(Br)[C@@H]3O)C1)=NO2` [Homoaerothionin], in the data set with Human recombinant AchE, the IC50 was 4.5 µM and the “mode of AChE inhibition” value is listed as “CI”.
`CN[C@@H](Cc1cc(Br)c(OC)c(Br)c1)C(=O)NCCc1cc(Br)c(OCCCN(C)C)c(Br)c1` [Isoanomoian A]: in the data set with Eel AChE (ref Olatunji et al. 2014 [31]), the IC50 was 70 µM and the “mode of AChE inhibition” value was “NCI”.
With `CN(C)CCc1cc(Br)c(O)c(Br)c1` [N,N-dimethyldibromotyramine (10), N,N-dimethyldibromotyramine], in data set [1], the inhibition at 1 µM was determined as 89 ± 1% and the inhibition at 10 µM was 100 ± 1%.
For `CN(C)CCCOc1c(Br)cc(/C=C/C(=O)N(C)CCCOc2c(Br)cc(CCN(C)C)cc2Br)cc1Br` [Psammaplysene D (1), psammaplysene D], in the data set on AChE, the “AChE activity in gills (in words)” value is reported as “mild but significant decrease”. Besides, in data set [2] (A. triostegus juveniles), the “behaviour of reef fish juveniles” value is “did not seem to be impacted”. Besides, the “number of bites on coral pieces per recruit and per hour (in words)” value in data set [2] was “loss of appetite from the first day of experiment”; in data set [2] (listed as psammaplysene D (1)), “significantly and readily decreased the number of bites”. The 50% inhibitory concentration (IC50) in data set [3] worked out at 1.3 µM. Besides, the “mode of AChE inhibition” value in data set [3] (Lineweaver-Burk plot) is “mixed competitive/non-competitive inhibition”. The Vmax (as a rule, the rate approached at saturating substrate) in [3] (Lineweaver-Burk, with 2 μg/mL psammaplysene D, decreasing from 0.0036) was 0.0007 µmol/min. Besides, in data set [4] (100 μg/mL, bathing), the “behaviour during acute exposure” value is “totally confused and had uncontrolled mobility”. Further, in data set [4] (100 μg/mL, one hour bathing), the acute toxicity outcome was “death”. Also, the “time to onset of behavioural effects after addition to the tank” value in data set [4] (acute exposure 100 μg/mL) was 20 min. In data set [1], the inhibition at 1 µM was determined as 95 ± 0.5%. Also, the inhibition at 10 µM in data set [1] came out at 100 ± 0.2%. The molecule also showed an IC50 at 72 h in “in vitro” of 0.7 µM. Moreover, the “feeding behaviour towards food flakes” value is “loss of appetite from the first day of experiment” in data set [5] and “passivity of the fish towards the food flakes” in [5] (listed as psammalysene D (1)).
As for `CN(C)CCc1cc(Br)c(OCCCN(C)C(=O)/C=C/c2cc(Br)c(O)c(Br)c2)c(Br)c1` [Psammaplysene F (2), psammaplysene F], in [1], the inhibition at 1 µM amounted to 20 ± 0.2% and the inhibition at 10 µM was 73 ± 2%.
Turning to `CN(C)CCc1cc(Br)c(OCCCN(C)C(=O)/C=C\c2cc(Br)c(O)c(Br)c2)c(Br)c1` [Psammaplysene G (3), psammaplysene G], in [1], the inhibition at 1 µM was 17 ± 1% and the inhibition at 10 µM is 75 ± 0.4%.
For the molecule Aplysanzine A, in the data set with Eel AChE (ref Olatunji et al. 2014 [31]), the IC50 was 104 µM and the “mode of AChE inhibition” value is listed as “NCI”.
Purealidine Q: in the data set on Eel AChE (ref Olatunji et al. 2014 [31]), the IC50 was 1.2 µM and the “mode of AChE inhibition” value was “NCI”.
